A value given as a limit tells only on which side of the number the result lay.

The subject of the first experiment is HCC1806 Cells. As to the kind of experiment: HCC1806 Cell Viability Assay (CellTiter-Glo). The experiment is classed as cell-based. The note with it: Homo sapiens, 144 h, 6 days incubation, read-out: HCC1806 CTG IC50. How it is done: HCC1806 Cells (ATCC, Cat #CRL-2335) were seeded at a density of 500 cells/well in a 96-well clear bottom plate (Greiner, Cat #655098) in 100 μL of complete media (RPMI1640+10% FBS). One hundred microliter of complete media was added into the blank wells (column 1) for low control. Cells were allowed to adhere to the plate overnight in the incubator at 37° C., 5% CO2. On the following day, 0.5 μL of serially-diluted compounds were added to the cells (columns 2-10) and incubated for 6 days at 37° C., 5% CO2 (final 0.5% DMSO concentration); 0.5 μL of DMSO solution was added into the wells (column 11) for high control. Cell viability was detected according to the CellTiter-Glo Luminescent Cell Viability Assay Kit (Promega, Cat #G7573). Luminescence was recorded on the Tecan Spark plate reader. Inhibition rate (IR) of the tested compounds was determined by the following formula: IR (%)=(1−(RLUcompound−RLUlow control)/(RLUhigh control−RLUlow control))×100%. The IC50 value was calculated using the non-linear regression equation: Y=Bottom+(Top−Bottom)/(1+10^((Log IC50−X)×HillSlope)), where X is Log of compound concentration, Y is percent inhibition (IR (%)), Top and Bottom are plateaus in same units as Y.
As for `O=C(Nc1ccc2c(c1)ncn2CC(F)(F)F)c1ccc(NS(=O)(=O)CCO)cc1N1CCC2(CC1)CC2` [Compound 3], the IC50 is above 2 µM.
The same measure, in the same setting: the result for `CN1CCOc2ccc(NC(=O)c3ccc(NS(=O)(=O)CCO)cc3N3CCC4(CC3)CC4)nc21` [Compound 7] reads above 2 µM.

For a further experiment, the system named is OVCAR3 Cells. Kind of experiment: OVCAR3 Cell Viability Assay (CellTiter-Glo). Type of experiment: cell-based. The note with it: Homo sapiens, OVCAR-3, 144 h, 6 days incubation, read-out: OVCAR3 CTG IC50. How it is done: OVCAR3 Cells (ATCC, Cat #HTB-161) were seeded at a density of 2000 cells/well in a 96-well clear bottom plate (Greiner, Cat #655098) in 100 μL of complete media (RPMI1640+20% FBS+0.01 mg/mL human insulin). One hundred microliter of complete media was added into the blank well (column 1) for low control. Cells were allowed to adhere to the plate overnight in the incubator at 37° C., 5% CO2. On the following day, 0.5 μL of serially-diluted compounds were added to the cells (columns 2-10) and incubated for 6 days at 37 C, 5% CO2 (final 0.5% DMSO concentration); 0.5 μL of DMSO solution was added into the wells (column 11) for high control. Cell viability was detected according to the CellTiter-Glo Luminescent Cell Viability Assay Kit (Promega, Cat #G7573). Luminescence was recorded on the Tecan Spark plate reader. Inhibition rate (IR) of the tested compounds was determined by the following formula: IR (%)=(1−(RLUcompound−RLUlow control)/(RLUhigh control−RLUlow control))×100%. The IC50 value was calculated using the non-linear regression equation: Y=Bottom+(Top−Bottom)/(1+10^((Log IC50−X)×HillSlope)), where X is Log of compound concentration, Y is percent inhibition (IR (%)), Top and Bottom are plateaus in same units as Y.
On the technique in general: Cellular ATP, detected with luciferase, serves as a proxy for viable cell number.
On to `O=C(Nc1ccc2c(c1)ncn2CC(F)(F)F)c1ccc(NS(=O)(=O)CCO)cc1N1CCC2(CC1)CC2` [Compound 3], for which the IC50 is above 2 µM.
Consider `CC(c1nc(N2CC3(CCC4(CC4)CC3)c3cc(NS(=O)(=O)CCO)ccc3C2=O)ccc1C#N)N1CC(F)(F)C1` (stereo not shown) [Compound 55], for which the IC50 is above 2 µM.
As for `CC(C)(C)NS(=O)(=O)c1cc(N2CC3(CCC4(CC4)CC3)c3cc(NS(=O)(=O)CCO)ccc3C2=O)ccc1C#N` [Compound 119], the IC50 is below 0.2 µM.
The same measure, in the same setting: for `Cn1ccc(-c2ccc(N3CC4(CCC5(CC5)CC4)c4cc(NS(=O)(=O)CCO)ccc4C3=O)nc2NC2CC(F)(F)C2)n1` [Compound 170] the value was 0.2 to 2 µM.
For the compound `O=C1c2ccc(NS(=O)(=O)CCO)cc2C2(CCC3(CC3)CC2)CN1c1ccnc(NC2CCCC2)n1` [Compound 66], the IC50 was below 0.2 µM.
Consider `NC(=O)c1ccc(N2CC3(CCC4(CC4)CC3)c3cc(NS(=O)(=O)CCO)ccc3C2=O)nc1NC1CC(F)(F)C1` [Compound 167], for which the IC50 is below 0.2 µM.
Take `Cn1cc(-c2ccc(N3CC4(CCC5(CC5)CC4)c4cc(NS(=O)(=O)CCO)ccc4C3=O)nc2N2CCC(F)(F)CC2)cn1` [Compound 141]: the IC50 is below 0.2 µM.
Take `CC1CN(c2nc(N3CC4(CCC5(CC5)CC4)c4cc(NS(=O)(=O)CCO)ccc4C3=O)ccc2C#N)CCO1` (stereo not shown) [Compound 63]: the IC50 is below 0.2 µM.
In the case of `CCS(=O)(=O)Nc1ccc2c(c1)C1(CCC3(CC3)CC1)CN(c1ccc(C#N)c(S(=O)(=O)N3CC(F)(F)C3)c1)C2=O` [Compound 118], the concentration for half-maximal inhibition (IC50) was below 0.2 µM.
Consider `CC(C)(C)NS(=O)(=O)c1cccc(N2CC3(CCC4(CC4)CC3)c3cc(NS(=O)(=O)CCO)ccc3C2=O)c1` [Compound 113], for which the IC50 was below 0.2 µM.
Take `O=C1c2ccc(NS(=O)(=O)CCO)cc2C2(CCC3(CC3)CC2)CN1c1ccc(C(F)(F)F)c(N2CCC(F)(F)CC2)n1` [Compound 154]: the IC50 was below 0.2 µM.
Turning to `O=C1c2ccc(NS(=O)(=O)CCO)cc2C2(CCC3(CC3)CC2)CN1c1ccc(C(F)F)c(N2CCC(F)(F)CC2)n1` [Compound 149], the IC50 was below 0.2 µM.
Consider `N#Cc1ccc(N2CC3(CCC4(CC4)CC3)c3cc(NS(=O)(=O)CCO)ccc3C2=O)nc1NCCC(F)(F)F` [Compound 93], for which the IC50 is below 0.2 µM.
With `Cc1ccc(-c2ccc(N3CC4(CCC5(CC5)CC4)c4cc(NS(=O)(=O)CCO)ccc4C3=O)nc2N2CCC(F)(F)CC2)cn1` [Compound 161], the IC50 was below 0.2 µM.
Regarding `Cc1ccc(N2CC3(CCC4(CC4)CC3)c3cc(NS(=O)(=O)CCO)ccc3C2=O)nc1N1CCC(F)(F)CC1` [Compound 52], the IC50 was below 0.2 µM.
As to `CN1CCN(C(=O)c2ccc(N3CC4(CCC5(CC5)CC4)c4cc(NS(=O)(=O)CCO)ccc4C3=O)nc2N2CCC(F)(F)CC2)CC1` [Compound 172], the IC50 lay in the range of 0.2 to 2 µM.
On to `O=C1c2ccc(NS(=O)(=O)CCO)cc2C2(CCC(=C(F)F)CC2)CN1c1ccnc(N2CCC(F)(F)CC2)n1` (stereo not shown) [Compound 77], for which the IC50 is 0.2 to 2 µM.
On to `O=C1c2ccc(NS(=O)(=O)CCO)cc2C2(CCC3(CC3)CC2)CN1c1ccc(-c2cc[nH]n2)c(N2CCC(F)(F)CC2)n1` [Compound 180], for which the IC50 was below 0.2 µM.
Turning to `CCc1ccc(N2CC3(CCC4(CC4)CC3)c3cc(NS(=O)(=O)CCO)ccc3C2=O)nc1N1CCC(F)(F)CC1` [Compound 150], the IC50 was below 0.2 µM.
For `NC(=O)c1ccc(N2CC3(CCC4(CC4)CC3)c3cc(NS(=O)(=O)CCO)ccc3C2=O)nc1N1CCC(F)(F)CC1` [Compound 139], the IC50 is below 0.2 µM.
Still for that read-out and setting: the result for `Cc1nccc(-c2ccc(N3CC4(CCC5(CC5)CC4)c4cc(NS(=O)(=O)CCO)ccc4C3=O)nc2NC2CC(F)(F)C2)n1` [Compound 174] reads below 0.2 µM; that for `CC1CCN(c2nc(N3CC4(CCC5(CC5)CC4)c4cc(NS(=O)(=O)CCO)ccc4C3=O)ccc2F)CC1` [Compound 37], 0.2 to 2 µM; that for `CCS(=O)(=O)Nc1ccc2c(c1)C1(CCC3(CC3)CC1)CN(c1ccnc(NC3CC(F)(F)C3)n1)C2=O` [Compound 145], below 0.2 µM.
As to `CN(C)CCS(=O)(=O)Nc1ccc2c(c1)C1(CCC3(CC3)CC1)CN(c1ccc(C#N)c(N3CCC(F)(F)CC3)n1)C2=O` [Compound 147], the 50% inhibitory concentration (IC50) was in the range of 0.2 to 2 µM.
Take `CC1(C)CCC2(CC1)CN(c1ccc(C#N)c(NC3CC(F)(F)C3)n1)C(=O)c1cc(F)c(NS(=O)(=O)CCO)cc12` [Compound 121]: the IC50 was below 0.2 µM.
On the same count and under the same terms, for `O=C1c2ccc(NS(=O)(=O)C(F)(F)F)cc2C2(CCC3(CC3)CC2)CN1c1ccnc(NC2CC(F)(F)C2)n1` [Compound 156] the value was above 2 µM.
Regarding `O=C1c2ccc(NS(=O)(=O)CCO)cc2C2(CCC3(CC3)CC2)CN1c1ccc(OC(F)F)c(N2CCC(F)(F)CC2)n1` [Compound 155], the IC50 was below 0.2 µM.
As to `CN1CCC(c2ccc(N3CC4(CCC5(CC5)CC4)c4cc(NS(=O)(=O)CCO)ccc4C3=O)nc2N2CCC(F)(F)CC2)CC1` [Compound 179], the IC50 was 0.2 to 2 µM.
As for `Cn1ccc(-c2ccc(N3CC4(CCC5(CC5)CC4)c4cc(NS(=O)(=O)CCO)ccc4C3=O)nc2N2CCC(F)(F)CC2)n1` [Compound 142], the IC50 was below 0.2 µM.
Regarding `N#Cc1ncc(N2CC3(CCC4(CC4)CC3)c3cc(NS(=O)(=O)CCO)ccc3C2=O)nc1N1CCC(F)(F)CC1` [Compound 157], the IC50 was below 0.2 µM.
With `O=C1c2ccc(NS(=O)(=O)CCO)cc2C2(CCC3(CC3)CC2)CN1c1ccc(F)c(NC2CC(F)(F)C2)n1` [Compound 42], the IC50 is below 0.2 µM.
Consider `CC1(F)CCC2(CC1)CN(c1ccc(C#N)c(N3CCC(F)(F)CC3)n1)C(=O)c1ccc(NS(=O)(=O)CCO)cc12` (stereo not shown) [Compound 105], for which the IC50 is below 0.2 µM.
On to `O=C1c2cnc(NS(=O)(=O)CCO)cc2C2(CCC3(CC3)CC2)CN1c1ccc(F)c(N2CCC(F)(F)CC2)n1` [Compound 107], for which the IC50 was below 0.2 µM.
Same read-out and setting: the result for `Cn1cc(N2CC3(CCC4(CC4)CC3)c3cc(NS(=O)(=O)CCO)ccc3C2=O)nc1N1CCC(F)(F)CC1` [Compound 20] reads 0.2 to 2 µM; that for `O=C1c2ccc(NS(=O)(=O)CCO)cc2C2(CCC3(CC3)CC2)CN1c1cncc(NC2CC(F)(F)C2)n1` [Compound 58], 0.2 to 2 µM; that for `O=C1c2ccc(NS(=O)(=O)CCO)cc2C2(CCC3(CC3)CC2)CN1c1ccc(=O)n(CC2CC(F)(F)C2)n1` [Compound 83], 0.2 to 2 µM.
On to `O=C1c2ccc(NS(=O)(=O)CCO)cc2C2(CCC3(CC3)CC2)CN1c1cncc(N2CCC(F)(F)CC2)n1` [Compound 54], for which the IC50 is below 0.2 µM.
Take `Cc1ncc(-c2ccc(N3CC4(CCC5(CC5)CC4)c4cc(NS(=O)(=O)CCO)ccc4C3=O)nc2N2CCC(F)(F)CC2)cn1` [Compound 160]: the IC50 is below 0.2 µM.
For `CN(c1nc(N2CC3(CCC4(CC4)CC3)c3cc(NS(=O)(=O)CCO)ccc3C2=O)ccc1C#N)C1CC(F)(F)C1` [Compound 49], the IC50 was below 0.2 µM.
The same measure, in the same setting: for `N#Cc1ccc(N2CC3(CCC(F)(F)CC3)c3cc(NS(=O)(=O)CCO)ccc3C2=O)nc1NC1CC(F)(F)C1` [Compound 104] the value was below 0.2 µM; for `CC1(CNc2nccc(N3CC4(CCC5(CC5)CC4)c4cc(NS(=O)(=O)CCO)ccc4C3=O)n2)COC1` [Compound 96], 0.2 to 2 µM.
The same measure, in the same setting: for `N#Cc1ccc(N2CC3(CCC4(CC4)CC3)c3cc(NS(=O)(=O)C(F)(F)F)ccc3C2=O)nc1N1CCC(F)(F)CC1` [Compound 159] the value was 0.2 to 2 µM; for `O=C1c2ccc(NS(=O)(=O)CCO)cc2C2(CCC3(CC3)CC2)CN1c1csc(N2CCC(F)(F)CC2)n1` [Compound 36], above 2 µM; for `N#Cc1ccc(N2CC3(CCC4(CC4)CC3)c3cc(NS(=O)(=O)CCO)ccc3C2=O)nc1S(=O)(=O)C1CCCC1` [Compound 100], below 0.2 µM.
As for `O=C1c2ccc(NS(=O)(=O)CCO)cc2C2(CCC3(CCC3)CC2)CN1c1ccnc(NC2CC(F)(F)C2)n1` [Compound 124], the IC50 was below 0.2 µM.
Turning to `N#Cc1ccc(N2CC3(CCC4(CC4)CC3)c3cc(NS(=O)(=O)CCO)ccc3C2=O)nc1C(=O)N1CCCC1` [Compound 122], the IC50 lay in the range of 0.2 to 2 µM.
For `N#Cc1ccc(N2CC3(CCC4(CC4)CC3)c3cc(NS(=O)(=O)CCO)ccc3C2=O)nc1CN1CC(F)(F)C1` [Compound 57], the IC50 is above 2 µM.

As usually defined, the IC50 is the point on the concentration scale where inhibition reaches its midpoint.

The values above are taken from patent US20260184692A1, “HETEROCYCLIC COMPOUNDS, PREPARATION METHODS AND USES THEREOF” (InventisBio Co., Ltd., priority 2022, published 2026).
